The subject of this assay is geranium cuttings. Description: Root initiation and survival of geranium cuttings after treatment. On the set-up: % survivality, Normal / % survivality, Two node / % survivality, Apical: concentration or dose not given beside the values. Type of assay: in vivo, Pelargonium graveolens. The following applies: for % survivality, Apical: apical cuttings; for % survivality, Normal: normal cuttings; for % survivality, Two node: two node cuttings. The source says: Geranium cuttings treated with Bacillus strain MTCC-5130, initiated rooting after 22–25 days of treatment, which was 5–7 days earlier than untreated control cuttings.

On to Indole butyric acid [IBA], for which, for the setting “cuttings of Dec. 5, 2001”, the “Root initiation (days after)” value turned out to be 28 days; the “% survivality, Apical” value turned out to be 100.0%; the “% survivality, Normal” value turned out to be 100%; the “% survivality, Two node” value was 100%. Further, for the setting “cuttings of Nov. 20, 2001”, the “Root initiation (days after)” value came out at 27 days; the “% survivality, Apical” value turned out to be 95.8%; the “% survivality, Normal” value is 100%; the “% survivality, Two node” value was found to be 69.2%.
